# Measured values taken from patent EP0285267A2, “Pyridine derivatives for treatment and prevention of liver damage, and their preparation” (YAMANOUCHI PHARMACEUTICAL CO. LTD., priority 1987, dated 1988).
# What was measured:
# [1] = system: serum GPT elevation due to carbon tetrachloride liver damage; assay: Carbon tetrachloride induced liver damage in rats, inhibition of serum GPT elevation; type: in vivo, Male Sprague Dawley rats; conditions: given twice (1 hour before and 3 hours after carbon tetrachloride 1 ml/kg orally), blood 24 hours after, route not given
# Procedure: The experimental liver damage was induced with carbon tetrachloride as the challenging agent. Carbon tetrachloride caused liver damage resembling that of alcohol-induced liver injury.
# Male Sprague Dawley rats weighing around 160 grams were used. Carbon tetrachloride was dissolved in olive oil to obtain 20% solution, which was administed in doses of 5ml/kg orally (carbon tetrachloride: 1 ml/ kg). The test compounds were suspended in Cremophor buffer for intraperitoneal administration, and in 0.5% methyl cellulose solution for oral administration; and the test solutions were administered in doses of 5ml/kg respectively. The administration of the test compound was conducted twice, namely, 1 hour before and 3 hours after the administration of carbon tetrachloride. 24 hours after the administration of carbon tetrachloride, blood was collected via the great abdominal vein, and the level of serum GPT was measured. […] Thus, the compounds of this invention are usuful for agents for treatment and prevention of liver damage.
# Other compounds, of formula I-B, were also found to have activity inhibiting the elevation of GPT due to carbon tetrachloride administration.
# [2] = system: increase in GPT level, galactosamine-induced liver damage; assay: D-galactosamine challenge in rats (test compound in 0.5 % methyl cellulose), inhibition of increase in serum GPT; type: in vivo, SD male rats; conditions: 30 mg/kg oral in 0.5 % methyl cellulose, twice (1 hour before and 3 hours after D-galactosamine 425mg/kg i.p.), blood 24 hours after
# Procedure: Experimental liver damage was induced with D-galactosamine as the challenging agent. Liver damage caused by D-galactosamine resembled that of acute hepatitis. The galactosamine hepatitis model is described in known prior art.
# Animals used: SD male rats (7 week age, about 220 g body weight)
# Administration method of the challenge compound: • D-galactosamine was dissolved in a physiological sodium chloride aqueous solution, and this solution was administered intraperitoneally to give galactosamine-induced liver damage. (Administered dose: 425mg/4mllkg) Administration method of the test compound: The test compound was suspended in 0.5 % methyl cellulose solution, and administered in doses of 30 mg/5 mi/kg, orally. The test compound was administered twice (1 hour before the D-galactosamine administration and 3 hours after its administration). 24 hours after the D-galactosamine administration, blood was obtained from the pentobarbital-anesthetized rats,and the level of serum-GPT was determined.
# [3] = Solubility in water (statement); type: physicochemical; conditions: qualitative statement
# [4] = Absorbability / bioavailability (statement); type: in vivo; conditions: qualitative statement; oral suspension in 0.5 % methyl cellulose
Molecule,Inhibiting effect (%) (30mg/kg administration) [1],"Inhibition rate (%) (30mg/kg, oral administration) [2]",also measured
"COC(=O)c1c(C)nc(C)c(C(=O)OC)c1-c1ccc2c(c1OC)OCO2 [Example 2, dimethyl 4-(2-methoxy-3,4-methylenedioxy)phenyl-2,6-dimethylpyridine-3,5-dicarboxylate]",81.1%,–,–
"COC(=O)C1=C(C)NC(C)=C(C(=O)OC)C1c1ccc2c(c1C(=O)OC)OCO2 [Example 7, dimethyl 4-(2-methoxycarbonyl-3,4-meth-lenedioxy)phenyl-2,6-dimethyl-1,4-dihydropyridine-3,5-dicarboxylate]",74.9%,70.7%,–
COC(=O)c1c(-c2c(C(=O)OC)c(C)nc(C)c2C(=O)OC)cc(OC)c2c1OCO2 [Example 14],–,67.8%,–
"COC(=O)C1=C(C)NC(C)=C(C(=O)OC)C1c1cc2c(cc1Br)OCO2 [Example 22, Dimethyl 4-(3,4-methylenedioxy-6-bromo)phenyl-2,6-dimethyl-1,4-dihydropyridine-3,5-dicarboxylate]",82.3%,–,–
"COC(=O)c1c(C)nc(C)c(C(=O)OC)c1-c1c([N+](=O)[O-])ccc2c1OCO2 [Example 36, Dimethyl 4-(2,3-methylenedioxy-6-nitro)phenyl-2,6-dimethylpyridine-3,5-dicarboxylate]",89.7%,–,–
"COC(=O)C1=C(C)NC(C)=C(C(=O)OC)C1c1ccccc1C(=O)OC [Example C, dimethyl 4-(2-methoxycarbonyl)phenyl-2,6-dimethyl-1,4-dihydropyridine-3,5-dicarboxylate]",91.6%,–,–
"COC(=O)C1=C(C)NC(C)=C(C(=O)OC)C1c1cccc2c1OCO2 [Example P, dimethyl 4-(2,3-methylenedioxy)phenyl-2,6-dimethyl-1,4-dihydropyridine-3,5-dicarboxylate]",85.4%,–,–
"COC(=O)c1c(C)nc(C)c(C(=O)OC)c1-c1cccc2c1OCO2 [Example U, dimethyl 4-(2,3-methylenedioxy)phenyl-2,6-dimethylpyridine-3,5-dicarboxylate]",76.0%,–,–
CCOc1c(N)c2c(c(OCC)c1OCC)C(C1c3c(cc4c(c3OC)OCO4)CCN1C)OC2=O (stereo not shown) [Tritoqualine],–,0%,solubility in water [3]: difficultly soluble in water; bioavailability (absorbability) [4]: low bioavailability
"dimethyl 4-(3,4-methylenedioxy)phenyl-2,6-dimethyl-1,4-dihydropyridine-3,5-dicarboxylate [Example A]",68.6%,–,–
